Assay results: patent publication US9546172B2, “Pyrazolo[3,4-d]pyrimidine and pyrazolo[2,3-d]pyrimidine compounds as kinase inhibitors” (Pharmacyclics LLC, priority 2011, dated 2017)

Legend:
Type in all cases: biochemical
[1] = target: T1, Btk (Homo sapiens, UniProt Q06187); test: Btk in vitro inhibitory activity (one of Methods A, B, C); conditions: determined in one of three in vitro assays (Examples 125-127)
T1 construct: purified from insect cells as a full-length construct containing a N-terminal 6×-His tag; 6xHis (N); host or cells: insect cells (baculovirus Sf21 in Method B)
T1 sequence (Q06187 whole entry): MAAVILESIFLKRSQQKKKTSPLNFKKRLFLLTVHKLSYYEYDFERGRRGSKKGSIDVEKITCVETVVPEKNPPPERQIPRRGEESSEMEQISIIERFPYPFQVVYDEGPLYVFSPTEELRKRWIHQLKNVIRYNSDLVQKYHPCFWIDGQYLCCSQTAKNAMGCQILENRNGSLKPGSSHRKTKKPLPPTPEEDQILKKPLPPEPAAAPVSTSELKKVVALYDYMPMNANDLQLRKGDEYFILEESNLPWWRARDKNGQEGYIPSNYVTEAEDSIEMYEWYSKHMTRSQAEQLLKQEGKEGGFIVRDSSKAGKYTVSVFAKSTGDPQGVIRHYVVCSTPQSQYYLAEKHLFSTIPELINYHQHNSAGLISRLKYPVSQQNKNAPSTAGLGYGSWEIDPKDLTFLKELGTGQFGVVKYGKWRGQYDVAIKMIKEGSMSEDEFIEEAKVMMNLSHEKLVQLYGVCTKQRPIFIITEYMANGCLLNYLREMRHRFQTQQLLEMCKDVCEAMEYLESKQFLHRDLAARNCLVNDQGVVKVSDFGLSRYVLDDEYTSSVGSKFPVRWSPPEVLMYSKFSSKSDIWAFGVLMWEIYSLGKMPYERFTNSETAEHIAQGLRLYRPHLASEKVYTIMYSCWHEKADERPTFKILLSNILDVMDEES
Protocol: The Btk IC50s of compounds disclosed herein was determined in one of the three in vitro assays described in Examples 125-127.
(§1) Btk kinase activity was determined using a time-resolved fluorescence resonance energy transfer (TR-FRET) methodology. Measurements were performed in a reaction volume of 50 μL using 96-well assay plates. […] The reaction was quenched by the addition of 1.2 equivalents of EDTA (relative to divalent cation) in 25 μL of 1× Lance buffer (Perkin-Elmer). Streptavidin-APC (Perkin-Elmer) and Eu-labeled p-Tyr100 antibody (Perkin-Elmer) in 1× Lance buffer were added in a 25 μL volume to give final concentrations of 100 nM and 2.5 nM, respectively, and the mixture was allowed to incubate for one hour. The TR-FRET signal was measured on a multimode plate reader with an excitation wavelength (λEx) of 330 nm and detection wavelengths (λEm) of 615 and 665 nm. Activity was determined by the ratio of the fluorescence at 665 nm to that at 615 nm. For each compound, enzyme activity was measured at various concentrations of compound. Negative control reactions were performed in the absence of inhibitor in replicates of six, and two no-enzyme controls were used to determine baseline fluorescence levels Inhibition constants, Ki(app), were obtained using the program BatchKi (Kuzmic et al. (2000), Anal. Biochem. 286:45-50). IC50s were obtained according to the equation: IC50={Ki(app)/(1+[ATP]/Km^ATP)}+[E]total/2; For all kinases, [ATP]=Km^ATP, [Btk]total=0.5 nM and [Lck]total=6 nM.
Kinase activity is measured in vitro using electrophoretic mobility shift assay. The kinase reactions are assembled in a total volume of 25 μL in 384 well plates. […] The reaction is incubated for one hour and is quenched by the addition of 45 μL of termination buffer (100 mM HEPES, pH7.5, 0.01% Triton X-100, 30 mM EDTA). The terminated reactions are analyzed using 12 channel LabChip® 3000 microfluidic detection instrument (Caliper Life Sciences). The enzymatic phosphorylation of the peptide results in a change in net charge, enabling electrophoretic separation of product from substrate peptide. As substrate and product peptides are separated, two peaks of fluorescence are observed. Change in the relative fluorescence intensity of the substrate and product peaks is the parameter measured, reflecting enzyme activity. In the presence of an inhibitor, the ratio between product and substrate is altered: the signal of the product decreases, while the signal of the substrate increases.
Activity in each sample is determined as the product to sum ratio (PSR): P/(S+P), where P is the peak height of the product peptide and S is the peak height of the substrate peptide. For each compound, enzyme activity is measured at various concentrations (12 concentrations of compound spaced by 3× dilution intervals). Negative control samples (0%-inhibition in the absence of inhibitor) and positive control samples (100%-inhibition, in the presence of 20 mM EDTA) are assembled in replicates of four and are used to calculate %-inhibition values for each inhibitor at each concentration. Percent inhibition (Pinh) is determined using following equation: Pinh=(PSR0%−PSRinh)/(PSR0%−PSR100%)*100, where PSRinh is the product sum ratio in the presence of inhibitor, PSR0% is the average product sum ration in the absence of inhibitor and PSR100% is the average product sum ratio in 100%-inhibition control samples;
The IC50 values of inhibitors are determined by 4 parameter sigmoidal dose-response model fitting of the inhibition curves (Pinh versus inhibitor concentration) using XLfit 4 software.
Human Btk kinase (Genbank accession # NP_000052) was purified from insect cells as a full-length construct containing a N-terminal 6×-His tag. Btk kinase activity was determined using a radiometric filter binding assay. Measurements are performed in a low reaction volume 384-well assay plates. […]

[2] = target: Lyn (Homo sapiens, UniProt P07948); test: Lyn kinase inhibition
Sequence of Lyn (P07948 whole entry): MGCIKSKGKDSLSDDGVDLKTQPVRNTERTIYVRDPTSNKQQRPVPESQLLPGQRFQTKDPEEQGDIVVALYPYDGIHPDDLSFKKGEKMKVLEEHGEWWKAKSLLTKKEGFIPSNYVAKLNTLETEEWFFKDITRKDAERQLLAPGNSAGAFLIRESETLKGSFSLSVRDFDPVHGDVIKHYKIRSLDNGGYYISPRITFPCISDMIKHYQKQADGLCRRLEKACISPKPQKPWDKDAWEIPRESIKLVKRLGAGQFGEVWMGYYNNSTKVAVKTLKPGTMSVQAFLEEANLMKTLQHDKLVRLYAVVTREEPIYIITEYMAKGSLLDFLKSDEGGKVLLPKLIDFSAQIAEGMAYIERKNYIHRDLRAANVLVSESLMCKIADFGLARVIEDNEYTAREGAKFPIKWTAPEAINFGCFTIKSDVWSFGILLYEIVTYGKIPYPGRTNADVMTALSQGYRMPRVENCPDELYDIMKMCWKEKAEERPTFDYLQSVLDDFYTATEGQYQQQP

[3] = target: C-src (Homo sapiens, UniProt P12931); test: C-src kinase inhibition
Sequence of C-src (P12931 whole entry): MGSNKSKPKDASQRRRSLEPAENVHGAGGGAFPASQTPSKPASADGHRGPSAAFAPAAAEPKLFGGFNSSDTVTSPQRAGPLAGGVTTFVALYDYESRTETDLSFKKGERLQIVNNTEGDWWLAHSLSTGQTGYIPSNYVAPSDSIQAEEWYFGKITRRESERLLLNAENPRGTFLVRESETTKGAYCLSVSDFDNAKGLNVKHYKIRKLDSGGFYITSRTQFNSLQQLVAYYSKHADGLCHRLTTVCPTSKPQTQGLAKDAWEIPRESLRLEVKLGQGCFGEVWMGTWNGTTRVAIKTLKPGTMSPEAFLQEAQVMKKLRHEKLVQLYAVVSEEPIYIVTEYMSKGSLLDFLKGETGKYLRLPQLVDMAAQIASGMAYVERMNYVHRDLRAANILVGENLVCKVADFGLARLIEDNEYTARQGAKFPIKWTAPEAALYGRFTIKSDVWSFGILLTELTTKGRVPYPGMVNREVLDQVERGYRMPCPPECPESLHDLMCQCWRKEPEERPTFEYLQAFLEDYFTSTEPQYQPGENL
Protocol: as §1

[4] = target: CSK (Homo sapiens, UniProt P41240); test: CSK kinase inhibition
[5] = target: T2, Tec (Homo sapiens, UniProt P42680); test: Tec kinase inhibition
T2 sequence (P42680 1-631): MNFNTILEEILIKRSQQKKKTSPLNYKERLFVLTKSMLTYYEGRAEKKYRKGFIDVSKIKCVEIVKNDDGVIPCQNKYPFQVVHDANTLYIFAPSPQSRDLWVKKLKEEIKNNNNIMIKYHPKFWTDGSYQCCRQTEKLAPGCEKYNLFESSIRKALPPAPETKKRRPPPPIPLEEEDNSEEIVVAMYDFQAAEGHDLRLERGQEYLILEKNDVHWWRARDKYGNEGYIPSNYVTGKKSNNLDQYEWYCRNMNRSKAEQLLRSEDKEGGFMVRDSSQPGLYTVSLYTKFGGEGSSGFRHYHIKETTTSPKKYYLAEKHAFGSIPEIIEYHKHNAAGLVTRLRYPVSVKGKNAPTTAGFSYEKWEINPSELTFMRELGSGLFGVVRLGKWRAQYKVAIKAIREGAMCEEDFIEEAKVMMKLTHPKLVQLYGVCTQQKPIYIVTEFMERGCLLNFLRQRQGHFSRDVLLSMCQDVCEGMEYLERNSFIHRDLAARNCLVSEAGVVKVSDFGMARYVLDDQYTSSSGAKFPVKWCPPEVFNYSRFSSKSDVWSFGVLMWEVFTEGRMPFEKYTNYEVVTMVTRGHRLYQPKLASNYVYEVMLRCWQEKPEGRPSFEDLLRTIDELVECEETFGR
Protocol: as §1

[6] = target: BLK (Homo sapiens, UniProt P51451); test: BLK kinase inhibition
Sequence of BLK (P51451 whole entry): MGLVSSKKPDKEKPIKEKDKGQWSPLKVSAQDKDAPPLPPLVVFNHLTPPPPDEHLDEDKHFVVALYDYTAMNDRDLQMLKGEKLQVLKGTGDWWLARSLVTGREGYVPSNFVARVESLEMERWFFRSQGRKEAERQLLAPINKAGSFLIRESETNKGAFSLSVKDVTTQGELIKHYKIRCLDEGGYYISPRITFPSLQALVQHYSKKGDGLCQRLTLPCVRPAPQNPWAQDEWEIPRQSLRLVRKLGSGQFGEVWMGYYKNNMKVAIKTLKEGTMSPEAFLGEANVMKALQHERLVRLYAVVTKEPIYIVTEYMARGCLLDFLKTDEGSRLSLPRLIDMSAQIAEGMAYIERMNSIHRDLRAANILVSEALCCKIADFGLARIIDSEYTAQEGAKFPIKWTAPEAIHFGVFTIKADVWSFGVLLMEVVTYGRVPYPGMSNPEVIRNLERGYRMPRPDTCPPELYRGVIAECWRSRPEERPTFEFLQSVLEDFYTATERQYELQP
Protocol: as §1

[7] = target: Lck (Homo sapiens, UniProt P06239); test: Lck kinase inhibition
Sequence of Lck (P06239 whole entry): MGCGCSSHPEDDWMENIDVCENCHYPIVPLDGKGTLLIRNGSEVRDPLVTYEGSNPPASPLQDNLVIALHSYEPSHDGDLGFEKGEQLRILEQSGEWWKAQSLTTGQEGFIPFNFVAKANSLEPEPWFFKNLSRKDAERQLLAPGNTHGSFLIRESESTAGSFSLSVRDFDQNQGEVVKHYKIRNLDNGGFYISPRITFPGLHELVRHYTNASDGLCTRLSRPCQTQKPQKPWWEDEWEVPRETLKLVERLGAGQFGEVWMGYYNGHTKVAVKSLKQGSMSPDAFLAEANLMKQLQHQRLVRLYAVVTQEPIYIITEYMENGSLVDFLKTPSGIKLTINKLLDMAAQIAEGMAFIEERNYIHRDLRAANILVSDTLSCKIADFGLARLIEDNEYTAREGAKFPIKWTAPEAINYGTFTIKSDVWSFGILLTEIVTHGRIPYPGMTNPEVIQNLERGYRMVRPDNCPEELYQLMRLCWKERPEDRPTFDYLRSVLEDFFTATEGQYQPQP
Protocol: as §1

[8] = target: RET (Homo sapiens, UniProt P07949); test: RET kinase inhibition
Sequence of RET (P07949 29-1114): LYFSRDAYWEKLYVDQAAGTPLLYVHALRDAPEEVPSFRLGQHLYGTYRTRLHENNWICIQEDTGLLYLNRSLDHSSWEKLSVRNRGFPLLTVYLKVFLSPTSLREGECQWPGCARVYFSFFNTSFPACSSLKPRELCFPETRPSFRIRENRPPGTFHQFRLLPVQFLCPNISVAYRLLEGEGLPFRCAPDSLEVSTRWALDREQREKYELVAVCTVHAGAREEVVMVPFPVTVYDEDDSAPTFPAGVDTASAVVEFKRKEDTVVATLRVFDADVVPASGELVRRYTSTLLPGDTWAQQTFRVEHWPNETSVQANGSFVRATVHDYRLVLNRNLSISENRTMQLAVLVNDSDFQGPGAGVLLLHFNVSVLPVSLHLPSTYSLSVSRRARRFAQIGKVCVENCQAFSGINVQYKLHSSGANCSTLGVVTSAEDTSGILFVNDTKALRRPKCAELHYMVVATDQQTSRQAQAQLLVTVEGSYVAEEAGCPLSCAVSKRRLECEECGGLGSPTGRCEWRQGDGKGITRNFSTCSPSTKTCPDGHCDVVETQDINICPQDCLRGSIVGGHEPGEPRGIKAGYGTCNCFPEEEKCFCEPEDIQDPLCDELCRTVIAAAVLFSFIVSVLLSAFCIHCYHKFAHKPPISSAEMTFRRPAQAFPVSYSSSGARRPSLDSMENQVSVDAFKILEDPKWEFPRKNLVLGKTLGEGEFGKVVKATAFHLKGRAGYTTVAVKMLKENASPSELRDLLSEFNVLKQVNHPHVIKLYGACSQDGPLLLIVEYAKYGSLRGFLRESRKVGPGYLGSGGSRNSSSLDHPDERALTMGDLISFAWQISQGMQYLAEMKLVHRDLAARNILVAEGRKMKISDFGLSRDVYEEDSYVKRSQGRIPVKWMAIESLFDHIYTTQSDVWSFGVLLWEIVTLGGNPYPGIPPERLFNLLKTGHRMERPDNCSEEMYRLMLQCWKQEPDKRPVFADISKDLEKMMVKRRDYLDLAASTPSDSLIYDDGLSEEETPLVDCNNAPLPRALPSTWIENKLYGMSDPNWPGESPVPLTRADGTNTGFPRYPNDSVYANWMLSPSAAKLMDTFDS

[9] = target: T3, BMX (Homo sapiens, UniProt P51813); test: BMX kinase inhibition
T3 sequence (P51813 1-675): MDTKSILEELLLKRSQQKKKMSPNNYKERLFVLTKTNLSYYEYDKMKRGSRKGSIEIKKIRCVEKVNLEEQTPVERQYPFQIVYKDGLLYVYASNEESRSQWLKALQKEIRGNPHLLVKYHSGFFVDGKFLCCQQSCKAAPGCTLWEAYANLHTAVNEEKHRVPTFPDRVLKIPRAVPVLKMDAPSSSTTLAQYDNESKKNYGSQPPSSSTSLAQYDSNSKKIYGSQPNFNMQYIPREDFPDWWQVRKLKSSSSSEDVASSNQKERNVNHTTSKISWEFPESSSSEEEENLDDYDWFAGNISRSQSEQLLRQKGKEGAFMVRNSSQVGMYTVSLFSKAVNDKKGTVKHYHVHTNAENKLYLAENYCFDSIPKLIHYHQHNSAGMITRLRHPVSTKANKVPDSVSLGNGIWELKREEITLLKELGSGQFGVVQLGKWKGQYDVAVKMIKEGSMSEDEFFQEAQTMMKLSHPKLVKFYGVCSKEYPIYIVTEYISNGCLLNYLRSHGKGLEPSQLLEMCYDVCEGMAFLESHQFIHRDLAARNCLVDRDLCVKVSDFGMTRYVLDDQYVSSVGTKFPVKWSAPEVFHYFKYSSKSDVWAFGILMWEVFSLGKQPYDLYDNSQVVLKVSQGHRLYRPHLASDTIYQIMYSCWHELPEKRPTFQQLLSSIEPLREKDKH

[10] = target: EGFR (Homo sapiens, UniProt P00533); test: EGFR kinase inhibition
Sequence of EGFR (P00533 25-1210): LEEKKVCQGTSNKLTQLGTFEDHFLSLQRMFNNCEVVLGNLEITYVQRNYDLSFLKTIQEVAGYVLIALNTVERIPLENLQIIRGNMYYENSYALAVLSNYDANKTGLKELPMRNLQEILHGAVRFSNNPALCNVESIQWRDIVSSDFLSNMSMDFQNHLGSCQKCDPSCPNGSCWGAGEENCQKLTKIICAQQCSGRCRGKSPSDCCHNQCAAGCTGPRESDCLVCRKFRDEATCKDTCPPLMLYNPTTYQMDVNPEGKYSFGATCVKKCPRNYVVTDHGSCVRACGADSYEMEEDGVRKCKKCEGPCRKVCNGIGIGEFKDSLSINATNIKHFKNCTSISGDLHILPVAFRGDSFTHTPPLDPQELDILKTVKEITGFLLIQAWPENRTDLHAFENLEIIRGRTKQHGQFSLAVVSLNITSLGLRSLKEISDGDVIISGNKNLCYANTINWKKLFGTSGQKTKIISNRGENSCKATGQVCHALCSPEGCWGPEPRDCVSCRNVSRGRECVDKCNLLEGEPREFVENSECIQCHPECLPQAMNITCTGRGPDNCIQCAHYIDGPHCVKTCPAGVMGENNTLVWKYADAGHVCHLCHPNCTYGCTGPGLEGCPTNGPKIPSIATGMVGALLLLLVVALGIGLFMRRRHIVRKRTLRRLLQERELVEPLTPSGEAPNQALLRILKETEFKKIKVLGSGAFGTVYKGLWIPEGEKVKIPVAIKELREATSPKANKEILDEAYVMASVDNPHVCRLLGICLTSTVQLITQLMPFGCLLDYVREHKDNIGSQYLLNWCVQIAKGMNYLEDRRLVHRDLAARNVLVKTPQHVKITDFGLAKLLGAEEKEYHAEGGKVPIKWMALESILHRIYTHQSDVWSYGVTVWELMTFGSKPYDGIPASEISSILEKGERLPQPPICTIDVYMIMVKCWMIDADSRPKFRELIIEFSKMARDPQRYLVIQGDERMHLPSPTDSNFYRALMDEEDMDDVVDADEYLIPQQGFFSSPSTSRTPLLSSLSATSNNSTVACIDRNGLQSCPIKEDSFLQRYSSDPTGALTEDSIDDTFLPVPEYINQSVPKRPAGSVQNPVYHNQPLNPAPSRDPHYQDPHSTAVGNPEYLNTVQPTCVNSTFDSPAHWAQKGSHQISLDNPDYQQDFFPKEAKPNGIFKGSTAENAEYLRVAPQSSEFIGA

Row | IC50 [1] | IC50 [2] | IC50 [3] | IC50 [7] | IC50 [8] | IC50 [10] | SMILES | IC50 [4] | IC50 [5] | IC50 [6] | IC50 [9]
1 | < 0.1 µM | 0.1 to 1 µM | < 0.1 µM | < 0.1 µM |  | < 0.1 µM | C=CC(=O)N(C)c1ccc(-n2nc(-c3ccc(C)c(OC)c3)c3c(N)ncnc32)cc1 [Example 18, N-(4-(4-amino-3-(3-methoxy-4-methylphenyl)-1H-pyrazolo[3,4-d]pyrimidin-1-yl)phenyl)-N-methylacrylamide] |  |  |  | 
2 | < 0.1 µM | < 0.1 µM | < 0.1 µM | < 0.1 µM |  | < 0.1 µM | C=CC(=O)Nc1ccc(-n2nc(-c3ccc(Cl)cc3)c3c(N)ncnc32)cc1 [Example 19, N-(4-(4-amino-3-(4-chlorophenyl)-1H-pyrazolo[3,4-d]pyrimidin-1-yl)phenyl)acrylamide] |  |  |  | 
3 | < 0.1 µM | > 1 µM | 0.1 to 1 µM | > 1 µM |  | < 0.1 µM | C=CC(=O)N(C)c1cccc(-n2nc(-c3ccc(Cl)cc3)c3c(N)ncnc32)c1 [Example 22, N-(3-(4-amino-3-(4-chlorophenyl)-1H-pyrazolo[3,4-d]pyrimidin-1-yl)phenyl)-N-methylacrylamide] |  |  |  | 
4 | < 0.1 µM | 0.1 to 1 µM | 0.1 to 1 µM | 0.1 to 1 µM |  |  | CN(C/C=C/C(=O)Nc1cccc(-n2nc(-c3ccc(Cl)cc3)c3c(N)ncnc32)c1)C1CC1 [Example 26, (E)-N-(3-(4-amino-3-(4-chlorophenyl)-1H-pyrazolo[3,4-d]pyrimidin-1-yl)phenyl)-4-(cyclopropyl(methyl)amino)but-2-enamide] |  |  |  | 

The next lines start with the molecule.

Row | SMILES | IC50 [1] | IC50 [2] | IC50 [3] | IC50 [7] | IC50 [8] | IC50 [10] | IC50 [4] | IC50 [5] | IC50 [6] | IC50 [9]
5 | COCCOc1ccc(-c2nn([C@@H]3CCN(C(=O)/C=C/CN(C)C)C3)c3ncnc(N)c23)cc1 [Example 2, (E)-1-((R)-3-(4-amino-3-(4-(2-methoxyethoxy)phenyl)-1H-pyrazolo[3,4-d]pyrimidin-1-yl)pyrrolidin-1-yl)-4-(dimethylamino)but-2-en-1-one] | < 0.1 µM | > 1 µM | > 1 µM | > 1 µM | > 1 µM |  | > 1 µM | 0.1 to 1 µM | < 0.1 µM | < 0.1 µM
6 | COc1cc(-c2nn(-c3ccc(N(C)C(=O)/C=C/CN(C)C)cc3)c3ncnc(N)c23)ccc1C [Example 15, (E)-N-(4-(4-amino-3-(3-methoxy-4-methylphenyl)-1H-pyrazolo[3,4-d]pyrimidin-1-yl)phenyl)-4-(dimethylamino)-N-methylbut-2-enamide] | < 0.1 µM | < 0.1 µM | < 0.1 µM | < 0.1 µM |  | 0.1 to 1 µM |  |  |  | 
7 | COc1cc(-c2nn(-c3ccc(NC(=O)/C=C/CN(C)C)cc3)c3ncnc(N)c23)ccc1C [Example 16, (E)-N-(4-(4-amino-3-(3-methoxy-4-methylphenyl)-1H-pyrazolo[3,4-d]pyrimidin-1-yl)phenyl)-4-(dimethylamino)but-2-enamide] | < 0.1 µM | < 0.1 µM | < 0.1 µM | < 0.1 µM |  | < 0.1 µM | < 0.1 µM | < 0.1 µM | < 0.1 µM | < 0.1 µM
8 | CN(C)C/C=C/C(=O)Nc1ccc(-n2nc(-c3ccc(Cl)cc3)c3c(N)ncnc32)cc1 [Example 17, (E)-N-(4-(4-amino-3-(4-chlorophenyl)-1H-pyrazolo[3,4-d]pyrimidin-1-yl)phenyl)-4-(dimethylamino)but-2-enamide] | < 0.1 µM | < 0.1 µM | < 0.1 µM | < 0.1 µM |  | < 0.1 µM | 0.1 to 1 µM | < 0.1 µM | < 0.1 µM | < 0.1 µM
9 | CN(C(=O)/C=C/CN(C)C1CC1)c1cccc(-n2nc(-c3ccc(Cl)cc3)c3c(N)ncnc32)c1 [Example 25, (E)-N-(3-(4-amino-3-(4-chlorophenyl)-1H-pyrazolo[3,4-d]pyrimidin-1-yl)phenyl)-4-(cyclopropyl(methyl)amino)-N-methylbut-2-enamide] | < 0.1 µM | > 1 µM | 0.1 to 1 µM | > 1 µM |  | < 0.1 µM | > 1 µM | < 0.1 µM | 0.1 to 1 µM | < 0.1 µM
10 | CN(C)C/C=C/C(=O)N(C)c1ccc(-n2nc(-c3ccc(Cl)cc3)c3c(N)ncnc32)nc1 [Example 28, (E)-N-(6-(4-amino-3-(4-chlorophenyl)-1H-pyrazolo[3,4-d]pyrimidin-1-yl)pyridin-3-yl)-4-(dimethylamino)-N-methylbut-2-enamide] | < 0.1 µM | > 1 µM | 0.1 to 1 µM | 0.1 to 1 µM |  | > 1 µM |  |  |  | 
11 | COc1cc(-c2nn(-c3ccc(N(C)C(=O)/C=C/CN(C)C)cn3)c3ncnc(N)c23)ccc1C [Example 29, (E)-N-(6-(4-amino-3-(3-methoxy-4-methylphenyl)-1H-pyrazolo[3,4-d]pyrimidin-1-yl)pyridin-3-yl)-4-(dimethylamino)-N-methylbut-2-enamide] | < 0.1 µM | 0.1 to 1 µM | < 0.1 µM | 0.1 to 1 µM |  | > 1 µM |  |  |  | 
